This passage reports MIC results from US20050032861A1, “Oxazolidines containing a sulfonimid group as antibiotics” (priority 2001, published 2005).

Format in all cases: cell-based
Assay [1] has as its system Staphylococcus aureus MSQS. The assay is described as follows: MIC, broth-dilution, Staphylococci in broth. As to conditions: Staphylococcus aureus MSQS (methicillin sensitive and quinolone sensitive); 37° C., 16-24 hours. How it is done: (§1) The following results were obtained on a standard in-vitro test system. The activity is described in terms of the minimum inhibitory concentration (MIC) determined by the broth-dilution technique with an inoculum size of 5×10^4 CFU/spot. Typically, compounds are active in the range 0.01 to 256 μg/ml.
(§2) Staphylococci were tested in broth using an inoculum of 5×10^4 CFU/spot and an incubation temperature of 37° C. for 16-24 hours.
(§3) • MSQS=methicillin sensitive and quinolone sensitive • MRQR=methincillin resistant and quinolone resistant

Assay [2] has as its system Staphylococcus aureus MRQR. Briefly: MIC, broth-dilution, Staphylococci in broth. As to conditions: Staphylococcus aureus MRQR (methicillin resistant and quinolone resistant); 37° C., 16-24 hours. How it is done: as §1, §2, §3
The test system of another assay is Streptococcus pneumoniae. The assay is described as follows: MIC, broth-dilution, Streptococci in Mueller-Hinton broth with horse blood. The following applies: 37° C. aerobically, 24 hours. How it is done:
(§4) The following results were obtained on a standard in-vitro test system. The activity is described in terms of the minimum inhibitory concentration (MIC) determined by the broth-dilution technique with an inoculum size of 5×10^4 CFU/spot. Typically, compounds are active in the range 0.01 to 256 μg/ml. Streptococci were tested in Mueller-Hinton broth supplemented with 2.5% clarified lake horse blood with an innoculum of 10^4 CFU/well and an incubation temperature of 37° C. aerobically for 24 hours.

The next assay has as its system Streptococcus pyogenes. Described as above. The following applies: 37° C. aerobically, 24 hours. How it is done:
as §4

The next assay concerns Haemophilus influenzae. The assay is described as follows: MIC, broth-dilution, fastidious Gram negative organisms. The following applies: hemin and NAD, 24 h at 37° C. How it is done:
(§5) The following results were obtained on a standard in-vitro test system. The activity is described in terms of the minimum inhibitory concentration (MIC) determined by the broth-dilution technique with an inoculum size of 5×10^4 CFU/spot. Typically, compounds are active in the range 0.01 to 256 μg/ml. Fastidious Gram negative organisms were tested in Mueller-Hinton broth supplemented with hemin and NAD, grown aerobically for 24 h at 37° C., and with an innoculum of 5×10^4 CFU/well.

For another assay, the system named is Moraxella catarrhalis. Described as above. As to conditions: hemin and NAD, 24 h at 37° C. Here is the method: as §5

Converted amounts (≈) assume the structure as drawn.

As to `N=S1(=O)CC=C(c2c(F)cc(N3C[C@H](Cn4ccnn4)OC3=O)cc2F)CC1` (stereo partly drawn) [Example 2, (5R)-3-[3,5-Difluoro-4-(1RS-1-imino-1-oxo-3,6-dihydrothiopyran-4-yl)-phenyl]-5-(1H-1,2,3-triazol-1-ylmethyl)-2-oxazolidinone], the MIC was determined as 1 µg/mL (≈ 2.44 µM) in assay [1]; 8 µg/mL (≈ 19.5 µM) in assay [2]; 2 µg/mL (≈ 4.88 µM) in the assay with Streptococcus pneumoniae; 2 µg/mL (≈ 4.88 µM) against Streptococcus pyogenes; 8 µg/mL (≈ 19.5 µM) against Haemophilus influenzae; 8 µg/mL (≈ 19.5 µM) with Moraxella catarrhalis.
